Experimental data published in US5130303A, “Drug effect-enhancing agent for antitumor drug” (Nissan Chemical Industries Ltd., priority 1988, dated 1992).
In brackets after ≈: the same amount, converted by molar mass.

Legend:
[1] = system: cancer cells; details: literature; cited from earlier work
[2] = system: KB-C2; assay: in vitro chemosensitivity test, MTT colorimetric assay with vincristine (Test Example 1, Table 1); type: cell-based; details: Homo sapiens, KB-C2, 96 h, read-out: IC50 of vincristine without a sample
Description: MTT colorimetric assay performed in a 96-well plate was used for an in vitro chemosensitivity test. The assay is dependent on the reduction of MTT by the mitochondrial dehydrogenase of viable cells to a blue formazan product which can be measured spectrophotometrically. Equal numbers of cells (2,000 for KB-3-1 and 5,000 for KB-C2) were inoculated into each well with […] of culture medium. After overnight incubation (37° C., 5% CO2), 20 μl of vincristine solution and 0.5 μl of sample solution were added and incubated for 4 days. Then, 50 μl of MTT (1.1 mg/ml PBS) was added to each well and incubated for further 4 hours. The resulting formazan was dissolved with 100 μl of DMSO after aspiration of the culture medium. Plates were placed on a plate shaker for 5 minutes and read immediately at 570 nm. IC50 (mg/ml) with a tested sample 10 μM is given in Table 1; and IC50 of vincristine without a sample was 5,000 ng/ml.
MTT: 3-(4,5-dimethylthiazol-2-yl)-2,5-diphenyltetrazolium bromide
MEM: minimum essential medium

SMILES | effect on multidrug resistance / antitumor drug effects [1] | IC50 [2]
COc1ccc(CCN(C)CCCC(C#N)(c2ccc(OC)c(OC)c2)C(C)C)cc1OC (stereo not shown) [Verapamil] | overcomes the multidrug resistance against antitumor drugs | –
COc1ccc([C@@H]2Sc3ccccc3N(CCN(C)C)C(=O)[C@@H]2OC(C)=O)cc1 [diltiazem] | enhances the drug effects of vincristine (VCR) | –
COC(=O)C1=C(C)NC(C)=C(C(=O)OCCN(C)Cc2ccccc2)C1c1cccc([N+](=O)[O-])c1 (stereo not shown) [nicardipin] | enhances the antitumor activities of vindecine sulfate | –
CC[C@]1(O)C[C@H]2CN(CCc3c([nH]c4ccccc34)[C@@](C(=O)OC)(c3cc4c(cc3OC)N(C=O)[C@H]3[C@@](O)(C(=O)OC)[C@H](OC(C)=O)[C@]5(CC)C=CCN6CC[C@]43[C@@H]65)C2)C1 [vincristine] | – | 5 µg/mL (≈ 6.06 µM)
